Holding throughout (format): cell-based
The subject of one assay is C18-1/EREBP1. Kind of assay: Northern analysis of mRNA accumulation in cultured tobacco cells. The note with it: 0.1 and 1 mM, approximately 2.5 h. As to the method: (§1) FIG. 2. Time course of SA-induced gene expression. Northern analysis of representative differential display genes following treatment of cultured tobacco cells with SA for the indicated time (in hours, except lanes 2-4, which refer to 10, 20, and 30 min.). Twenty micrograms of total RNA was loaded per lane. Blots were hybridized with ddPCR fragments indicated at right or with the β-ATPase gene as a loading control probe. Autoradiogram exposure times were optimized for each gene. […] Labels on left indicate response class.
(§2) FIG. 4. Specificity of induction among SA analogs and other signalling compounds. Northern analysis of representative differential display genes following treatment of tobacco cells with 100 μM or 1 mM (left and right side of triangles, respectively) of the following chemicals for 2-2.5 hr: salicylic acid (SA, lanes 4 and 5), acetylSA (ASA, lanes 6 and 7), benzoic acid (BA, lanes 8 and 9), 4-hydroxybenzoic (4HBA, lanes 10 and 11), thiamine (thia, lanes 12 and 13), methyljasmonate (MJ, lanes 14 and 15), abscisic acid (ABA, lanes 16 and 17), or 2,4-dichlorophenoxyacetic acid (2,4-D, lanes 18 and 19). Control treatments are H2O (H, lane 1), 1% ethanol (E, solvent concentration in MJ treatments, lane 2), or 1% DMSO (D, solvent concentration in 2,4D treatments, lane 3). Blots were hybridized with ddPCR fragments indicated at right or with the β-ATPase geneas a loading control probe. Autoradiogram exposure times were optimized for each gene. […] Labels on left indicate response class.
(§3) FIG. 5. Dose response of C18-1 and G8-1 to a range of chemicals. Northern analysis of tobacco cell cultures with eight concentrations of SA, ASA, BA, 4HBA, Thia, MJ, ABA, 2,4-D, or H2O for 2-2.5 hr. Concentrations were 0.1, 1, 3, 10, 30, 100, 300 μM or […], as indicated.
(§4) FIG. 6. […] Graphic representation of mRNA accumulation of G8-1 ( ), C18se -1 (♦), and IEGT (o) in response to a 2-2.5 hr incubation of cultured tobacco cells with a range of SA concentrations. RNA gel blots were quantitated by phosphorimaging analysis and normalized relative to the β-ATPase gene loading control (not shown).
(§5) Differential display technology (Liang, P. and Pardee, A. B., Science 257: 967-971, 1992) was used to identify genes activated in the presence of SA, CHX and both. Therefore the absence or presence of SA, induction at 3 timepoints of SA-treatment, 2 different concentrations of SA and the effect of addition of CHX were measured. Seven treatments in total were performed. Treatment of tobacco BY-2 suspension cells and leaves and differential display PCR reactions were performed as described (Horvath and Chua (1996), Plant Mol. Biol. 31, 1061-1072).
The kinetics of induction were examined in detail through time course experiments for representative clones of each class (FIG. 2).
(§6) The specificity for induction by SA was tested by treating tobacco cells with a range of SA analogs and plant signalling compounds at 0.1 and 1 mM for approximately 2.5 h. […] Several genes, including those for proteinase inhibitors and lipoxygenase (Hildmann, T. et al., Plant Cell 4: 1157-1170, 1992; Melan, M. A. et al., Plant Physiol. 101: 441-450, 1993; Xu, D. et al., Plant Mol. Biol. 22: 573-588, 1993) are known to be under dual regulation by MJ and ABA.
A dose-response curve was made for SA. Therefore tobacco cells were treated with SA in a range of concentrations from 0.1 μM to 2 mM.

For another assay, the system named is G8-1. The description is as above. The note with it: for G8-1 induction at 0.1 mM versus 1 mM: 0.1 and 1 mM, approximately 2.5 h. How it is done: (§7) FIG. 1. […] Northern analysis of genes identified by differential display. Gel-purified DNA fragments produced by ddPCR were either used directly for random-primed labeling and probing of Northern filters (e.g. C7-1, C6-1, and G9-2) or first subcloned and released by restriction digest. Each lane contains 1 μg of poly(A) mRNA from cultured tobacco cells treated with (1) H2O, 4 hr; (2) 200 μM SA, 4 hr; (3) 71 μM CHX, 5 hr; (4) 71 μM CHX, 5 hr plus 200 μM SA after 1 hr (4 hr total); (5) 20 μM SA, 2 hr; (7) 200 μM SA, 8 hr.
as §1, §2, §3, §4, §5
The specificity for induction by SA was tested by treating tobacco cells with a range of SA analogs and plant signalling compounds at 0.1 and 1 mM for approximately 2.5 h.

The subject of another assay is C6-2. The assay is described as above. The following applies: 0.1 and 1 mM, approximately 2.5 h. How it is done:
(§8) FIG. 2. Time course of SA-induced gene expression. Northern analysis of representative differential display genes following treatment of cultured tobacco cells with SA for the indicated time (in hours, except lanes 2-4, which refer to 10, 20, and 30 min.). Twenty micrograms of total RNA was loaded per lane. Blots were hybridized with ddPCR fragments indicated at right or with the β-ATPase gene as a loading control probe. Autoradiogram exposure times were optimized for each gene. The signal for C18-1 was enhanced by using the full length cDNA as probe. Labels on left indicate response class.
(§9) FIG. 4. Specificity of induction among SA analogs and other signalling compounds. Northern analysis of representative differential display genes following treatment of tobacco cells with 100 μM or 1 mM (left and right side of triangles, respectively) of the following chemicals for 2-2.5 hr: salicylic acid (SA, lanes 4 and 5), acetylSA (ASA, lanes 6 and 7), benzoic acid (BA, lanes 8 and 9), 4-hydroxybenzoic (4HBA, lanes 10 and 11), thiamine (thia, lanes 12 and 13), methyljasmonate (MJ, lanes 14 and 15), abscisic acid (ABA, lanes 16 and 17), or 2,4-dichlorophenoxyacetic acid (2,4-D, lanes 18 and 19). Control treatments are H2O (H, lane 1), 1% ethanol (E, solvent concentration in MJ treatments, lane 2), or 1% DMSO (D, solvent concentration in 2,4D treatments, lane 3). Blots were hybridized with ddPCR fragments indicated at right or with the β-ATPase geneas a loading control probe. Autoradiogram exposure times were optimized for each gene. The signal for C18-1 was enhanced by using the full length cDNA as probe. Labels on left indicate response class.
as §5
(§10) The specificity for induction by SA was tested by treating tobacco cells with a range of SA analogs and plant signalling compounds at 0.1 and 1 mM for approximately 2.5 h. […] Among the SA-analogs, acetyl-SA (ASA, aspirin), benzoic acid (BA) and 4-hydroxybenzoic acid (4HBA), responses generally reflected the ability of the analog to substitute for SA in other cellular responses (Yalpani, N. et al., Plant Cell 3: 809-818, 1991, Yang, Y. and Klessig, D. F., Proc. Natl. Acad. Sci. 93, 14972-14977, 1996). […] Several genes, including those for proteinase inhibitors and lipoxygenase (Hildmann, T. et al., Plant Cell 4: 1157-1170, 1992; Melan, M. A. et al., Plant Physiol. 101: 441-450, 1993; Xu, D. et al., Plant Mol. Biol. 22: 573-588, 1993) are known to be under dual regulation by MJ and ABA. A similar mode of regulation may be in effect with C14-1b. the auxin 2,4-D induced several genes including C18-1/EREBP1 and C6-2.

The subject of a further assay is G3-2. Described as above. The following applies: 0.1 and 1 mM, approximately 2.5 h. How it is done: (§11) FIG. 1. Four classes of SA-induced early genes. Northern analysis of genes identified by differential display. Gel-purified DNA fragments produced by ddPCR were either used directly for random-primed labeling and probing of Northern filters (e.g. C7-1, C6-1, and G9-2) or first subcloned and released by restriction digest. Each lane contains 1 μg of poly(A) mRNA from cultured tobacco cells treated with (1) H2O, 4 hr; (2) 200 μM SA, 4 hr; (3) 71 μM CHX, 5 hr; (4) 71 μM CHX, 5 hr plus 200 μM SA after 1 hr (4 hr total); (5) 20 μM SA, 2 hr; (7) 200 μM SA, 8 hr. One blot was sequentially hybridized with the G1-1 fragment and the β-ATPase gene as a loading control probe. response classes (I-IV) are indicated on the left of the autoradiograms.
as §8, §9, §5, §10

For assay [1], the system named is early SA-induced genes identified by differential display. Kind of assay: Northern analysis of differential display genes in cultured tobacco cells. The following applies: 0.1 and 1 mM, approximately 2.5 h. How it is done: as §7, §2, §5, §6
The subject of a further assay is C14-1b. The assay can be described thus: Northern analysis of mRNA accumulation in cultured tobacco cells. The following applies: 0.1 and 1 mM, approximately 2.5 h. As to the method: as §8, §9, §5, §10
The subject of another assay is Class I genes. The assay can be described thus: Northern analysis of poly(A) mRNA from treated tobacco cells. The note with it: SA at 2, 4 or 8 h; 71 μM CHX 5 hrs; CHX + 200 μM SA. As to the method: as §11, §5
(§12) Fiftytwo were recovered for testing on poly(A)+Northern blots loaded with mRNA derived from cells from each of the treatments.

For the next assay, the system named is class II genes. The description is as above. The note with it: SA at 2, 4, 8 h; 71 μM CHX 5 hrs; CHX + 200 μM SA. How it is done:
as §11, §5, §12

Assay [2] concerns class IV genes (G3-2 and C14-1b). The description is as above. How it is done: as §11, §5, §12
Where [3] appears, read: 71 μM CHX 5 hrs + 200 μM SA after 1 hr.
Setting [4] is: SA at 2, 4, 8 h, 71 μM CHX 5 hrs.

Each structure is given as a SMILES string.

`O=C(O)c1ccccc1` [BA, benzoic acid]: the “C18-1/EREBP1 induction at 0.1 mM versus 1 mM” value in the assay with C18-1/EREBP1 is listed as “greater induction at 1mM”. Also, the “G8-1 induction at 0.1 mM versus 1 mM” value with G8-1 is reported as “equal or greater induction at 0.1 mM versus 1 mM”. Moreover, the “C6-2 induction at 0.1 mM versus 1 mM” value with C6-2 is given as “greater induction at 1mM”. Further, the “G3-2 induction at 0.1 mM versus 1 mM” value with G3-2 is recorded as “equal or greater induction at 0.1 mM versus 1 mM”. Besides, the “induction of the genes tested” value in [1] is recorded as “also induced the expression”.

On to `O=C(O)c1ccc(O)cc1` [4HBA, 4-hydroxybenzoic acid], for which the “induction of the genes tested” value in [1] was “failed to induce all genes but C6-2”.

As for `CC1=CC(=O)CC(C)(C)[C@@]1(O)/C=C/C(C)=C\C(=O)O` [ABA, abscisic acid], the “induction of C14-1b” value in the assay on C14-1b is “could be induced”.

Take `CC/C=C\CC1C(=O)CCC1CC(=O)OC` (centres unmarked) [MJ, Methyljasmonate]: in the assay on C18-1/EREBP1, the “effectiveness as inducer of C18-1/EREBP1 among compounds tested” value is recorded as “most effective inducer” and the “induction of C18-1/EREBP1” value is reported as “able to induce expression”. In the assay on C14-1b, the “effectiveness as inducer of C14-1b among compounds tested” value is “most effective inducer” and the “induction of C14-1b” value is given as “able to induce expression”. Also, the “induction of G3-2” value in the assay on G3-2 is “able to induce expression”.

With `C[C@@H]1C[C@@H]([C@H](O)CC2CC(=O)NC(=O)C2)C(=O)[C@@H](C)C1` [CHX, cycloheximide], in the assay on G8-1 (setting [3]), the “effect of presence of CHX on induction of G8-1 by SA” value was “did not significantly alter”. The “mRNA induction of G8-1 (class III)” value in the assay with G8-1 (setting [4]) is “did not induce”. In the assay on Class I genes, the “mRNA induction of Class I genes” value is on record as “some induction”. Moreover, the “mRNA induction of class II genes” value in the assay with class II genes is “also induced expression”. In addition, the “effect of CHX on induction of class IV genes by SA” value in assay [2] (setting [3]) is “blocked the induction”. The “mRNA induction of class IV genes” value in assay [2] (setting [4]) is “fail to induce”.

`CC(=O)Oc1ccccc1C(=O)O` [ASA, acetyl-SA]: the “C18-1/EREBP1 induction at 0.1 mM versus 1 mM” value in the assay on C18-1/EREBP1 was “greater induction at 1mM”. Besides, the “G8-1 induction at 0.1 mM versus 1 mM” value with G8-1 is “equal or greater induction at 0.1 mM versus 1 mM”. The “C6-2 induction at 0.1 mM versus 1 mM” value in the assay on C6-2 is given as “greater induction at 1mM”. Besides, the “G3-2 induction at 0.1 mM versus 1 mM” value in the assay with G3-2 was “equal or greater induction at 0.1 mM versus 1 mM”. For the same compound, in [1], the “induction of the genes tested” value is given as “induced all genes to similar levels as SA”.

Take `O=C(O)COc1ccc(Cl)cc1Cl` [2,4-D, 2,4-dichlorophenoxyacetic acid]: in the assay with C18-1/EREBP1, the “induction of C18-1/EREBP1” value is reported as “induced”. The “induction of C6-2” value in the assay with C6-2 is recorded as “induced”.

For the compound `Cc1ncc(C[n+]2csc(CCO)c2C)c(N)n1` [thiamine], the “induction of the genes tested” value in [1] is recorded as “did not produce a response from any of the genes tested”.

(Values after patent US20020039780A1, “Salicyclic acid inducible genes and promoters” (priority 1998, published 2002).)
